Measured values as given in patent US6194176A, “Recombinant expression of proteins from secretory cell lines” (priority 1997, dated 2001).
Where two headings read alike, the source gives them in different places.

What was measured:
[1] = test system: Hexokinases I-III (HK1-111), low Km hexokinases; conditions: HK1-111, Table 1, cited from earlier work
Glucokinase (GK) = conditions: cited from earlier work
RIN 1046-38 cells = assay: Insulin secretion in static incubation, glucose dose response with or without 5-thioglucose; assay type: cell-based; conditions: Rattus norvegicus; 2 mM 5-thioglucose, 0.25 mM glucose + 100 μM IBMX, 2 h; read-out: reduction in insulin secretion
Method: (§1) Cells were plated in 12-well dishes (Corning Glass Works, Corning, N.Y.) at a density of approximately 250,000 cells per well and allowed to grow for 48 hours. Cells were washed twice for 20 minutes each in HEPES/bicarbonate buffered salt solution (HBBSS; 114 mM NaCl, 4.7 mM KCl, 1.21 mM KH2 PO4, 1.16 mM MgSO4, 25.5 mM NaHCO3, 2.5 mM CaCl2, 10 mM Hepes) with 0.1% bovine serum albumin but without glucose. Secretion studies were then conducted by incubating cells in HBBSS containing 0.5% BSA and with glucose in a range of concentrations from 0 to 20 mM for two hours. These experiments were conducted in the presence and absence of 2 mM 5-thioglucose (Sigma, St. Louis, Mo.) and in the presence or absence of 100 μM isobutylmethylxanthine (IBMX). Following incubation, media was collected and assayed for insulin by radioimmunoassay with the DPC method, as described above. Secretion was normalized for cell number by measuring total protein in each well by the method of Bradford (1976), using the kit from Bio-Rad, Hercules, Calif.

EP 49/206 cells = assay: as above; assay type: cell-based, rat; conditions: 2 mM 5-thioglucose, + IBMX, 2 h
Method: as §1

R5C.I-17 cells = assay: as above; assay type: cell-based, rat
Method: as §1

EP 40/110 cells = assay: as above; assay type: cell-based, rat; conditions: 2 mM 5-thioglucose, + IBMX, 2 h
Method: as §1

Nc1ncnc2c1ncn2[C@@H]1O[C@H](COP(=O)(O)OP(=O)(O)OP(=O)(O)O)[C@@H](O)[C@H]1O [ATP]
Km ([1]; read-out: Km ATP): 200 to 500 µM | Km (Glucokinase (GK); GK of Table 1, read-out: Km ATP): 0.5 mM

O=C[C@H](O)[C@@H](O)[C@H](O)[C@H](S)CO [5-thioglucose]
inhibition at 2000 µM (RIN 1046-38 cells): 50% | effect on insulin secretion response to 0.05 and 0.25 mM glucose (EP 49/206 cells): completely eliminated | maximal fold-response of insulin secretion (R5C.I-17 cells; 2 mM 5-thioglucose present, seen at 1 mM glucose + IBMX (5.7-fold without 5-thioglucose)): 3.9 fold | inhibition at 2000 µM (R5C.I-17 cells; Rattus norvegicus, 2 mM 5-thioglucose, no secretagogues or IBMX alone, 2 h, read-out: suppression of basal insulin secretion): ~50% | effect on insulin secretion response to 0.25 mM glucose (EP 40/110 cells): completely eliminated | inhibition at 2000 µM (EP 40/110 cells; Rattus norvegicus, read-out: reduction of insulin secretion response to 0.5 mM glucose): 70%

O=P(O)(O)OC[C@H]1OC(O)[C@H](O)[C@@H](O)[C@@H]1O (some centres unmarked) [G-6-P, glucose-6-phosphate]
Ki ([1]; read-out: Ki G-6-P): 200 to 900 µM | Ki (Glucokinase (GK); GK of Table 1, read-out: Ki G-6-P): 60 mM | glucose-6-phosphate concentration required for appreciable inhibition (Glucokinase (GK)): > 10 mM

OC[C@H]1OC(O)[C@H](O)[C@@H](O)[C@@H]1O (some centres unmarked) [glucose]
Km ([1]; read-out: Km glucose): 20 to 130 µM | Km (Glucokinase (GK); GK of Table 1, read-out: Km glucose): 5 to 12 mM | Km (Glucokinase (GK); approximate, read-out: Km for glucose): 6 to 8 mM
